Tests used:
dogs = assay: Dosage required to raise mean arterial pressure (MAP) by 10%; assay type: in vivo; details: experimentally determined
Experimental: Nasal airway pressure was measured using a Validyne pressure transducer (Validyne Engineering, Northridge, CA) with a 2.25 cm H2O range membrane connected to a multipen recorder (Grass Instruments, Quincy, MA). Air was passed through an in-line direct measure flow meter (Gilmont Instruments, Barrington, IL) connected to the nasal opening cannula. Pressure was measured in the line with a constant flow rate (150 ml/min) of air. Drugs were directly injected into the jugular vein using a 30 gauge needle. All injections were of a constant 0.1 ml volume. In the congestion challenged groups congestion was achieved by an intranasal administration of histamine (50 mM, 0.02 ml/nostril). The histamine was expelled after 2 minutes with a short nasal cannula airflow and subsequent enantiomeric drug doses were directly injected into the jugular vein. The dosage chosen for each drug was the amount needed to increase the mean arterial pressure (MAP) of the animal by 10%; this dosage served as the "100%" dose for the initial nasal airway studies. […] The dosage required for rats was calculated by proportionately adjusting the experimentally determined dog dosage to account for the lesser weight of the rats.

Male Swiss-Webster mice [1] = assay: Locomotor activity: stimulant and depressant effects (horizontal distance); assay type: in vivo
Sprague Dawley rats [2] = assay: Nasal airway pressure / resistance in anesthetized rats, normal and histamine-challenged; assay type: in vivo; details: 75% dose
Male Swiss-Webster mice [3] = assay: H1 antihistamine (triprolidine) interaction study, locomotor activity; assay type: in vivo; details: pretreatment with 0.01, 0.1, or 1.0 mg/kg triprolidine 20 minutes before
Experimental: H1 antihistamine interaction studies. […] The mice were then immediately placed in the activity-testing apparatus for a 2 hour session. […] Eight mice were tested for each triprolidine/sympathomimetic combination.
The dose-effect data were considered in 1-way analysis of variance, and planned individual comparisons were conducted between each dose and the saline control group.

α2-Receptor = assay type: binding, mongrel dogs
Sprague Dawley rats [4] = assay: Mean arterial blood pressure after 75% dose in rats; details: compared with (+)-ephedrine

CNC[C@H](O)c1cccc(O)c1 [(-)-phenylephrine]
Dosage required to raise MAP by 10%, Dog (dogs): 10 µg/kg

CC(N)Cc1ccccc1 (single isomer, unassigned; (+)) [(+)-amphetamine]
Locomotor stimulant effects, time course (Male Swiss-Webster mice [1]; 2-hour session after i.p. injection, result in words): dose- and time-dependent increase in the distance traversed

CN[C@H](C)[C@@H](O)c1ccccc1 [(+)-ephedrine]
Dosage required to raise MAP by 10%, Dog (dogs): 200 µg/kg | effect on normal airway decongestion (Sprague Dawley rats [2]): the same efficacious effect on normal airway decongestion | interaction with triprolidine pretreatment (horizontal movement) (Male Swiss-Webster mice [3]): no drug interaction is apparent

CNC[C@H](O)c1ccc(O)c(O)c1 [Epinephrine]
displacement of bound p-iodoclonidine (α2-Receptor): easily displaced all bound p-iodoclonidine

Cc1ccc(/C(=C\CN2CCCC2)c2ccccn2)cc1 [triprolidine]
effect on horizontal distance (Male Swiss-Webster mice [1]; mouse, in vivo): failed to affect horizontal distance | effect on locomotion (Male Swiss-Webster mice [1]; triprolidine alone, 50 and 100 mg/kg, beginning within 10 minutes, lasting 30 to 40 minutes): Dose-dependent depression of locomotion

CN[C@@H](C)[C@H](O)c1ccccc1 [(-)-ephedrine]
Dosage required to raise MAP by 10%, Dog (dogs): 100 µg/kg | effect on normal airway decongestion (Sprague Dawley rats [2]): the same efficacious effect on normal airway decongestion | interaction with triprolidine pretreatment (horizontal movement) (Male Swiss-Webster mice [3]): increased horizontal movement is observed | increase in blood pressure (Sprague Dawley rats [4]): slightly greater (though significant) increase in blood pressure than (+)-ephedrine

CN[C@@H](C)[C@@H](O)c1ccccc1 [(+)-pseudoephedrine]
Dosage required to raise MAP by 10%, Dog (dogs): 200 µg/kg | interaction with triprolidine pretreatment (horizontal movement) (Male Swiss-Webster mice [3]): increased horizontal movement is observed

From patent EP1310247A1 (priority 1997, dated 1999)
